Assay results taken from ChEMBL document CHEMBL1121613.

Each compound was assayed against Adrenergic receptor alpha (Homo sapiens) (UniProt P35348+P08913+P18825+P25100+P35368+P18089) (assay: Blocking activity towards Alpha adrenergic receptor of rabbit aortic tissue preparation was determined). Details: Oryctolagus cuniculus; target entry is the homologue from another species.

`C[C@@H]1CN=C(Cc2cccc3ccccc23)N1` and `C[C@H]1CN=C(Cc2cccc3ccccc23)N1` are within 0.2 log units of each other in -Log KB: 5.6 for the first, 5.76 for the second.

`C[C@@H]1CN=C(Nc2c(Cl)cccc2Cl)N1` and `C[C@H]1CN=C(Nc2c(Cl)cccc2Cl)N1` are within 0.2 log units of each other in -Log KB: 5.08 for the first, 5.27 for the second.

Going from `c1ccc(C[C@@H]2CN=C(Cc3cccc4ccccc34)N2)cc1` to `c1ccc(C[C@H]2CN=C(Cc3cccc4ccccc34)N2)cc1`, the -Log KB rises from 6.34 to 6.57.

`c1ccc(CC2NC[C@@H](Cc3ccccc3)N2)cc1` (stereo partly drawn) and `c1ccc(CC2NC[C@H](Cc3ccccc3)N2)cc1` (stereo partly drawn) are within 0.2 log units of each other in -Log KB: 4.98 for the first, 5 for the second.
